Test results: ChEMBL document CHEMBL1130831, “Relationship between dihedral angles of N1 and C9 substituents in 1,4-benzodiazepines and dual cholecystokinin-A and -B antagonistic activities” (Bioorg Med Chem Lett, 1998)

Experiments:
[1] = target: Cholecystokinin receptor (Homo sapiens) (UniProt P32239+P32238); test: Ratio of inhibitory activity of CCK-A to CCK-B was reported.; type: protein assay
[2] = target: T1, Cholecystokinin receptor type A (Rattus norvegicus) (UniProt P30551); test: Compound was evaluated for the inhibition of […] I-CCK-8 binding at Cholecystokinin type A receptor in rat pancreatic membranes at 10 e -8 M; type: cell membranes; details: Membrane
T1 sequence (whole entry): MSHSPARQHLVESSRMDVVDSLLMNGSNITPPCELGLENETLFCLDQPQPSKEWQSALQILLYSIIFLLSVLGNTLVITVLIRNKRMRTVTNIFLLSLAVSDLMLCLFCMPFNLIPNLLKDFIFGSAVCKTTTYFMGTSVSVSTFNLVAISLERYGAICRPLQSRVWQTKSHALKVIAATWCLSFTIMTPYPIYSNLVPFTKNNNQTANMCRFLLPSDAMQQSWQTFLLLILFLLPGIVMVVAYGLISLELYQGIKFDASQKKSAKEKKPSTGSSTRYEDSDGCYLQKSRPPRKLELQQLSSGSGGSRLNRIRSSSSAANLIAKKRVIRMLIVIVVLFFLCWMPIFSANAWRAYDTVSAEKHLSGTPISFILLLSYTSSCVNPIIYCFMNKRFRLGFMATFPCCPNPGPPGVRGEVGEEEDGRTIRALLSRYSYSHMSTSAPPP

[3] = target: T2, Cholecystokinin receptor type A (Rattus norvegicus, UniProt P30551); test: Compound was evaluated for the inhibition of […] I-CCK-8 binding at Cholecystokinin type A receptor in rat pancreatic membranes; type: cell membranes, Membrane
T2 sequence (P30551 whole entry): T1 sequence (whole entry)

[4] = Compound was evaluated for the inhibition of […] I-CCK-8 binding at Cholecystokinin type B receptor on guinea pig cerebral cortical membranes

Sequence of Cholecystokinin receptor (Homo sapiens) (P32238 whole entry, looked up): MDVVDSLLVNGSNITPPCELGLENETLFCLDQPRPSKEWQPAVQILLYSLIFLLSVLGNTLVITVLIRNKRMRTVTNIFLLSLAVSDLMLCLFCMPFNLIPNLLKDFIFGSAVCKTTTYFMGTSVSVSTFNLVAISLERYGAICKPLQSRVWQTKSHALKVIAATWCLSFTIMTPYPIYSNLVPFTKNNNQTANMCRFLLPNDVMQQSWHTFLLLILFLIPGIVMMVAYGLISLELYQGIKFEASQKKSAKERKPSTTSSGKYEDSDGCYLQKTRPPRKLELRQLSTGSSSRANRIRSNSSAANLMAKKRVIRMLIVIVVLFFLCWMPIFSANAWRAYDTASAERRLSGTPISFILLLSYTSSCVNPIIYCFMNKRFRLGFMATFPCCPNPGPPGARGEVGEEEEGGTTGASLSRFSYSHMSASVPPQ
Sequence of Cholecystokinin receptor (Homo sapiens) (P32239 whole entry, looked up): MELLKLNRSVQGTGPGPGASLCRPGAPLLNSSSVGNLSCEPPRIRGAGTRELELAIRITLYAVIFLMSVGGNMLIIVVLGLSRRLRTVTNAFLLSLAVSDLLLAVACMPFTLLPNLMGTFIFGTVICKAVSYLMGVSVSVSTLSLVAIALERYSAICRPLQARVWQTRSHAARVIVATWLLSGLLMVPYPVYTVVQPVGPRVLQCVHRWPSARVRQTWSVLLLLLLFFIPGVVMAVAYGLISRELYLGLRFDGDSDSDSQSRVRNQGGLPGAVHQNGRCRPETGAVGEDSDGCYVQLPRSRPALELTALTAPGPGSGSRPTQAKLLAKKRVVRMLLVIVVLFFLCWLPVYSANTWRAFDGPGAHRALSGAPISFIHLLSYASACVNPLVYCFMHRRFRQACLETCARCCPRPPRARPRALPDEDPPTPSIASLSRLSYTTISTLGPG

Structure (SMILES)	Ratio [1]	IC50 [3] [nM]	also measured
O=C(Nc1cccc(-c2nn[nH]n2)c1)NC1N=C(c2ccccc2F)c2ccccc2N(CC(=O)N2CC3CCC(CC3)C2)C1=O (centres undefined)	710	–	–
CC(C)c1cccc2c1N(CC(=O)N1CC3CCC(CC3)C1)C(=O)C(NC(=O)Nc1cccc(-c3nn[nH]n3)c1)N=C2c1ccccc1F (centres undefined)	–	–	inhibition [2]: 12.2%
O=C(Nc1cccc(-c2nnn[nH]2)c1)NC1N=C(c2ccccc2F)c2cccc(Cl)c2N(CC(=O)N2CC3CCC(CC3)C2)C1=O (centres undefined)	–	13	–
CCc1cccc2c1N(CC(=O)N1CC3CCC(CC3)C1)C(=O)C(NC(=O)Nc1cccc(-c3nnn[nH]3)c1)N=C2c1ccccc1F (centres undefined)	–	18	–
Cc1cccc2c1N(CC(=O)N1CC3CCC(CC3)C1)C(=O)C(NC(=O)Nc1cccc(-c3nn[nH]n3)c1)N=C2c1ccccc1F (centres undefined)	21	–	IC50 [4]: 0.68 nM
O=C(Nc1cccc(-c2nn[nH]n2)c1)NC1N=C(c2ccccc2F)c2cccc(Cl)c2N(CC(=O)N2CC3CCC(CC3)C2)C1=O (centres undefined)	20	–	–
CCc1cccc2c1N(CC(=O)N1CC3CCC(CC3)C1)C(=O)C(NC(=O)Nc1cccc(-c3nn[nH]n3)c1)N=C2c1ccccc1F (centres undefined)	22	–	–
O=C(Nc1cccc(-c2nnn[nH]2)c1)NC1N=C(c2ccccc2F)c2ccccc2N(CC(=O)N2CC3CCC(CC3)C2)C1=O (centres undefined)	–	62	–
